For 41 compounds, Normal melting temperature and activity coefficient results are on record in the NIST ThermoML archive (doi:10.1016/j.jct.2018.05.003).

± gives the expanded uncertainty stated by the source.

Assay in the first data set: not given
Particulars: Crystal; visual observation.
Take `O=C(C(=O)c1ccccc1)c1ccccc1` [1,2-diphenylethanedione]: the Normal melting temperature is 95.4 ± 1.1 °C. On the same count and under the same terms, then `O=C(O)c1cc([N+](=O)[O-])ccc1Cl` [2-chloro-5-nitrobenzoic acid], with 167.0 ± 1.1 °C; and `O=C(O)c1ccccc1O` [2-hydroxybenzoic acid], with 159.6 ± 1.1 °C.

Take `Cc1cccc(C(=O)O)c1` [3-methylbenzoic acid]: the Normal melting temperature is 109.2 ± 0.9 °C.

For `O=C(O)c1cccc([N+](=O)[O-])c1` [3-nitrobenzoic acid], the Normal melting temperature came out at 141.6 ± 0.9 °C. As to `O=C(O)c1ccc(Cl)c([N+](=O)[O-])c1` [4-chloro-3-nitrobenzoic acid], the Normal melting temperature was 183.2 ± 1.1 °C.

Regarding `c1ccc2c(c1)Nc1ccccc1S2` [10H-phenothiazine], the Normal melting temperature is 184.8 ± 0.7 °C. Take `O=C(O)c1ccccc1` [benzoic acid]: the Normal melting temperature was 122.5 ± 0.9 °C. Still for that read-out and setting: then `O=S(=O)(c1ccccc1)c1ccccc1` [diphenyl sulfone], with 125.1 ± 0.9 °C.

A short description of another data set: activity coefficient (dimensionless); of the first substance listed, at infinite dilution; xn = mol fraction of the nth substance listed. To be noted: 298.15 K; 101.33 kPa; Liquid; Chromatography; x1 = 0.
For the compound `CC(Cl)CCl` (stereo unspecified) [1,2-dichloropropane] + CCCCCOC(C)=O, the activity coefficient turned out to be 0.61 ± 0.03. Take `Cc1cccc(C)c1` [1,3-dimethylbenzene] + CCCCCOC(C)=O: the activity coefficient worked out at 0.9 ± 0.03. Turning to `Cc1ccc(C)cc1` [1,4-dimethylbenzene] + CCCCCOC(C)=O, the activity coefficient amounted to 0.92 ± 0.03. As to `C1COCCO1` [1,4-dioxane] + CCCCCOC(C)=O, the activity coefficient was determined as 0.91 ± 0.03.

For `C=CCCCCC=C` [1,7-octadiene] + CCCCCOC(C)=O, the activity coefficient is 1.14 ± 0.05. With `CCCCCl` [1-chlorobutane] + CCCCCOC(C)=O, the activity coefficient amounted to 0.84 ± 0.03. On to `C=CCCCCC` [1-heptene] + CCCCCOC(C)=O, for which the activity coefficient was found to be 1.35 ± 0.04. For the compound `C#CCCCCCC` [1-octyne] + CCCCCOC(C)=O, the activity coefficient is 0.85 ± 0.03. Still for that read-out and setting: the same measure for `CC(C)Br` [2-bromopropane] + CCCCCOC(C)=O: 0.82 ± 0.03; for `CC(C)=O` [acetone] + CCCCCOC(C)=O: 1.19 ± 0.05. With `CC#N` [acetonitrile] + CCCCCOC(C)=O, the activity coefficient worked out at 1.69 ± 0.05.

In the case of `c1ccccc1` [benzene] + CCCCCOC(C)=O, the activity coefficient was 0.73 ± 0.03. On to `Brc1ccccc1` [bromobenzene] + CCCCCOC(C)=O, for which the activity coefficient turned out to be 0.78 ± 0.05. For the compound `C1CCCCC1` [cyclohexane] + CCCCCOC(C)=O, the activity coefficient stood at 1.51 ± 0.05. Take `C1=CCCCC1` [cyclohexene] + CCCCCOC(C)=O: the activity coefficient came out at 1.16 ± 0.03. In the case of `CCCCCCCCCC` [decane] + CCCCCOC(C)=O, the activity coefficient is 2.5 ± 0.13. Consider `CCO` [ethanol] + CCCCCOC(C)=O, for which the activity coefficient is 2.97 ± 0.12. With `CCOC(C)=O` [ethyl acetate] + CCCCCOC(C)=O, the activity coefficient came to 0.96 ± 0.03.

`CCc1ccccc1` [ethylbenzene] + CCCCCOC(C)=O: the activity coefficient stood at 0.98 ± 0.04. As for `Fc1ccccc1` [fluorobenzene] + CCCCCOC(C)=O, the activity coefficient amounted to 0.61 ± 0.03. `CCCCCCC` [heptane] + CCCCCOC(C)=O: the activity coefficient came out at 1.9 ± 0.1.

As for `C=CCCCC` [hex-1-ene] + CCCCCOC(C)=O, the activity coefficient was 1.22 ± 0.03. On to `CCCCCC` [hexane] + CCCCCOC(C)=O, for which the activity coefficient amounted to 1.74 ± 0.1.

In the case of `C[N+](=O)[O-]` [nitromethane] + CCCCCOC(C)=O, the activity coefficient came to 1.28 ± 0.05. Take `CCCCCCCCC` [nonane] + CCCCCOC(C)=O: the activity coefficient came to 2.17 ± 0.14. As for `CCCCCCCC` [octane] + CCCCCOC(C)=O, the activity coefficient amounted to 2.02 ± 0.09. For the compound `CCCO` [propan-1-ol] + CCCCCOC(C)=O, the activity coefficient worked out at 2.43 ± 0.11. In the case of `CC(C)O` [propan-2-ol] + CCCCCOC(C)=O, the activity coefficient was determined as 2.86 ± 0.11. On to `CCCc1ccccc1` [propylbenzene] + CCCCCOC(C)=O, for which the activity coefficient is 1.02 ± 0.06. In the case of `C1CCOC1` [tetrahydrofuran] + CCCCCOC(C)=O, the activity coefficient was found to be 0.8 ± 0.04. In the case of `Cc1ccccc1` [toluene] + CCCCCOC(C)=O, the activity coefficient is 0.86 ± 0.04.

`ClC(Cl)Cl` [trichloromethane] + CCCCCOC(C)=O: the activity coefficient stood at 0.27 ± 0.03.
